Reference: PMC8659243, “Design, Synthesis and Tumour-Selective Toxicity of Novel 1-[3-{3,5-Bis(benzylidene)-4-oxo-1-piperidino}-3-oxopropyl]-4-piperidone Oximes and Related Quaternary Ammonium Salts” (Molecules, 2021)

Experiments:
HCT-116 cells = test: NCI in vitro screen, colon cancer HCT-116; type: cell-based; settings: Homo sapiens
From the text: (§1) One particular reference drug is 5-fluorouracil, which is used in treating colon cancers.

colon cancer cells = test: NCI in vitro screen, average of colon cancer cells; type: cell-based; settings: Homo sapiens
From the text: as §1

HSC-2 cells = test: Cytotoxicity against HSC-2 cells, MTT method, 48 h; type: cell-based, human; settings: for CC50: Homo sapiens, HSC-2, concentration required to kill 50% of the cells, 48 h, MTT; for SI HSC-2: average CC50 towards HGF, HPLF, HPC divided by CC50 against HSC-2
Description: (§2) A literature procedure was followed when the compounds in series 3 and 4 were evaluated against three human oral squamous cell carcinoma cell lines Ca9-22 (RCB-1976), HSC-2 (RCB1945), HSC-4 (RCB1902) (purchased from RIKEN Cell Bank, Tukuba, Japan) and three human normal oral cells, gingival fibroblast (HGF), periodontal ligament fibroblast (HPLF) and pulp cells (HPC) (established according to the guideline of the intramural ethic committee, A0808) except the duration of incubation was increased from 24 h to 48 h. In brief, various concentrations of the compounds were added to the DMEM media, which was supplemented by 10% heat-inactivated fetal bovine serum. Incubation was undertaken at 37 °C. At the completion of the experiment, cell viability was determined by the MTT method.

HCC-2998 cells = test: NCI in vitro screen, colon cancer HCC-2998; type: cell-based; settings: Homo sapiens
From the text: as §1

[1] = Average over HGF, HPLF and HPC non-malignant cells; type: cell-based; settings: human, HPLF and HPC non-malignant cells (average of the three)
Description: as §2

[2] = Cytotoxicity against non-malignant HPLF cells, MTT method, 48 h; type: cell-based; settings: human, periodontal ligament fibroblasts (HPLF)
Description: as §2

[3] = tested on: Ca9-22, HSC-2 and HSC-4 cells; test: Average over Ca9-22, HSC-2 and HSC-4 neoplastic cells; type: cell-based, human; settings: for CC50: Homo sapiens, average of Ca9-22, HSC-2 and HSC-4, read-out: Average CC50; for Average SI: average of SI for Ca9-22, HSC-2 and HSC-4
Description: In order to assess whether the compounds in series 3 and 4 are more toxic to neoplasms than non-malignant cells, selective index (SI) figures were calculated. In the in vivo situation, a tumour is surrounded by a number of non-malignant cells.
In order to identify the most promising lead compounds in terms of both cytotoxic potencies and favourable SI values, potency–selectivity expression (PSE) values were computed. […] Outstanding results may be noted for four compounds that have PSE values in excess of 100,000 namely 3d, 4c–e. […] However, the relative SI/PSE distribution patterns between series 3 and 4 (from a to h) are nearly superimposable with each other (Figure 3). […] It has been reported that 3,5-bis(3-iodo-5-methoxy-4-propoxybenzylidene)-N-acetylpiperidin-4-one inhibited tubulin and destabilization of microtubules, while 3,5-bis(3,4,5-trimethoxybenzylidene)-N-benzoylpiperidin-4-one destabilizes the microtubules. Thus, it remained to investigate whether compound 4d acts as an inhibitor of the microtubule.
as §2

SR cells = test: NCI in vitro screen, leukemia SR; type: cell-based; settings: Homo sapiens
From the text: (§3) In view of the encouraging result with CEM leukemic cells, consideration was given to an assessment in the NCI in vitro screening program. The oximes, but not the quaternary ammonium salts, were accepted for bioevaluation. Examination of the mean graphs confirms the sensitivity of leukemic cells to these compounds.

KM12 cells = test: NCI in vitro screen, colon cancer KM12; type: cell-based; settings: Homo sapiens
From the text: as §1

HT29 cells = test: NCI in vitro screen, colon cancer HT29; type: cell-based; settings: Homo sapiens, HT-29
From the text: as §1

Colo205 cells = test: NCI in vitro screen, colon cancer Colo205; type: cell-based; settings: Homo sapiens, COLO 205
From the text: as §1

RPMI-8226 cells = test: NCI in vitro screen, leukemia RPMI-8226; type: cell-based; settings: Homo sapiens
From the text: as §3

[4] = Cytotoxicity against non-malignant HPC cells, MTT method, 48 h; type: cell-based; settings: human, pulp cells (HPC)
Description: as §2

HL-60 (TB) cells = test: NCI in vitro screen, leukemia HL-60 (TB); type: cell-based; settings: Homo sapiens
From the text: as §3

SW-620 cells = test: NCI in vitro screen, colon cancer SW-620; type: cell-based; settings: Homo sapiens
From the text: as §1

leukemia cells = test: NCI in vitro screen, average of leukemia cells; type: cell-based; settings: Homo sapiens
From the text: as §3

[5] = tested on: CEM T-lymphoblastic leukemia cells; test: Cytotoxicity against CEM cells, MTT method, 24 h; type: cell-based; settings: Homo sapiens, CCRF-CEM, concentration required to inhibit cell growth by 50%
Description: The method used for the evaluation of various compounds against human CEM cells has been reported previously. In brief, cells were grown in RPMI-1640 medium supplemented with 10% heat-inactivated fetal bovine serum. Different concentrations of compounds were added to the media, and after 24 h incubation, cytotoxicity was measured by the MTT method.

Ca9-22 cells = test: Cytotoxicity against Ca9-22 cells, MTT method, 48 h; type: cell-based, human; settings: for CC50: Homo sapiens, Ca9-22, concentration required to kill 50% of the cells, 48 h, MTT, read-out: CC50 Ca9-22; for SI Ca9-22: average CC50 towards HGF, HPLF, HPC divided by CC50 against Ca9-22
Description: as §2

[6] = Cytotoxicity against non-malignant HGF cells, MTT method, 48 h; type: cell-based; settings: human, gingival fibroblasts (HGF)
Description: as §2

HCT-15 cells = test: NCI in vitro screen, colon cancer HCT-15; type: cell-based; settings: Homo sapiens
From the text: as §1

HSC-4 cells = test: Cytotoxicity against HSC-4 cells, MTT method, 48 h; type: cell-based, human; settings: for CC50: Homo sapiens, HSC-4, concentration required to kill 50% of the cells, 48 h, MTT, read-out: CC50 HSC-4; for SI HSC-4: average CC50 towards HGF, HPLF, HPC divided by CC50 against HSC-4
Description: as §2

Molt-4 cells = test: NCI in vitro screen, leukemia Molt-4; type: cell-based; settings: Homo sapiens
From the text: as §3

All Cell Lines = test: NCI in vitro screen, all cell lines; type: cell-based; settings: Homo sapiens
From the text: as §1

K-562 cells = test: NCI in vitro screen, leukemia K-562; type: cell-based; settings: Homo sapiens, K562
From the text: as §3

| Structure (SMILES) | CC50 (HSC-2 cells) [nM] | SI HSC-2 (HSC-2 cells) | CC50 at 48 h [1] [nM] | CC50 at 48 h [2] [nM] | CC50 [3] [nM] | Average SI [3] | CC50 at 48 h [4] [nM] | IC50 [5] [nM] | CC50 (Ca9-22 cells) [nM] | SI Ca9-22 (Ca9-22 cells) | CC50 at 48 h [6] [nM] | CC50 (HSC-4 cells) [nM] | SI HSC-4 (HSC-4 cells) | further results |
| --- | --- | --- | --- | --- | --- | --- | --- | --- | --- | --- | --- | --- | --- | --- |
| O=C1/C(=C/c2ccc([N+](=O)[O-])cc2)CN(C(=O)CCN2CCC(=NO)CC2)C/C1=C\c1ccc([N+](=O)[O-])cc1 [Compound 3e, (3~{E},5~{E})-1-[3-(4-hydroximino-1-piperidyl)propanoyl]-3,5-bis[(4-nitrophenyl)methylene]piperidin-4-one] | 120 ± 90 | 27.3 | 3270 | 3060 ± 160 | 80 | 57.5 | 5070 ± 210 | 11600 ± 310 | 30 | 109 | 1670 ± 310 | 90 ± 20 | 36.3 | IC50 (HCT-116 cells): 490 nM; IC50 (colon cancer cells): 460 nM; IC50 (HCC-2998 cells): 1170 nM; IC50 (SR cells): 100 nM; IC50 (KM12 cells): 290 nM; IC50 (HT29 cells): 330 nM; IC50 (Colo205 cells): 400 nM; IC50 (RPMI-8226 cells): 300 nM; IC50 (HL-60 (TB) cells): 1550 nM; IC50 (SW-620 cells): 200 nM; IC50 (leukemia cells): 500 nM; IC50 (HCT-15 cells): 360 nM; IC50 (Molt-4 cells): 400 nM; IC50 (All Cell Lines): 1790 nM; IC50 (K-562 cells): 280 nM |
| C[N+]1(CCC(=O)N2C/C(=C\c3ccc([N+](=O)[O-])cc3)C(=O)/C(=C/c3ccc([N+](=O)[O-])cc3)C2)CCC(=NO)CC1 (stereo not drawn) [Compound 4e, (3~{E},5~{E})-1-[3-(4-hydroximino-1-piperidyl)propanoyl]-3,5-bis[(4-nitrophenyl)methylene]piperidin-4-one methiodide] | 50 ± 10 | 41.4 | 2070 | 2590 ± 270 | 40 | 60.0 | 2460 ± 1230 | 870 ± 20 | 20 | 104 | 1150 ± 350 | 60 ± 10 | 34.5 | – |
| Cc1ccc(/C=C2\CN(C(=O)CC[N+]3(C)CCC(=NO)CC3)C/C(=C\c3ccc(C)cc3)C2=O)cc1 (stereo not drawn) [Compound 4f, (3~{E},5~{E})-3,5-bis[(4-methylphenyl)methylene]-1-[3-(4-hydroximino-1-piperidyl)propanoyl]piperidin-4-one methiodide] | 460 ± 100 | 20.8 | 9560 | 8370 ± 810 | 350 | 32.6 | 15200 ± 1900 | 4180 ± 650 | 180 ± 20 | 53.1 | 5120 ± 240 | 400 ± 230 | 23.9 | – |
| COc1cccc2c1C(=O)c1c(O)c3c(c(O)c1C2=O)C[C@@](O)(C(=O)CO)C[C@@H]3O[C@H]1C[C@H](N)[C@H](O)[C@H](C)O1 [Doxorubicin, reference compound] | 110 ± 10 | 66.5 | 7310 | 9730 ± 470 | 240 | 43.6 | 8770 ± 2140 | – | 470 ± 120 | 15.6 | 3440 ± 530 | 150 ± 50 | 48.7 | – |
